Targets include Cytochrome P450 3A4 (Homo sapiens, UniProt P08684); Cytochrome P450 2D6 (Homo sapiens, UniProt P10635); Cytochrome P450 2C9 (Homo sapiens, UniProt P11712).
Another series deals with Exodeoxyribonuclease V (Escherichia coli (strain K12), UniProt P04993+P07648+P08394). Briefly: RecBCD inhibition via phage-restricted bacterial growth – absorbance, V66 E. coli, mutant T4 phage, counter-screen for AddAB inhibitor project, dose response (AID 492957). It is filed as functional, cell-based, Escherichia coli str. K-12 substr. MG1655. (In general: The purpose of a counterscreen is to sort out artefacts and off-target activity.)

The nature of series [1]: Counterscreen for AddAB inhibitors: absorbance-based bacterial cell-based high throughput dose response assay for inhibitors of bacterial viability. [Related pubchem assays (depositor defined):AID435030, AID449728, AID449731, AID488942, AID488955, AID488956]. It is filed as functional.
Series [2] addresses T1, High affinity choline transporter 1 (Homo sapiens, UniProt Q9GZV3).
T1 sequence (Q9GZV3 whole entry): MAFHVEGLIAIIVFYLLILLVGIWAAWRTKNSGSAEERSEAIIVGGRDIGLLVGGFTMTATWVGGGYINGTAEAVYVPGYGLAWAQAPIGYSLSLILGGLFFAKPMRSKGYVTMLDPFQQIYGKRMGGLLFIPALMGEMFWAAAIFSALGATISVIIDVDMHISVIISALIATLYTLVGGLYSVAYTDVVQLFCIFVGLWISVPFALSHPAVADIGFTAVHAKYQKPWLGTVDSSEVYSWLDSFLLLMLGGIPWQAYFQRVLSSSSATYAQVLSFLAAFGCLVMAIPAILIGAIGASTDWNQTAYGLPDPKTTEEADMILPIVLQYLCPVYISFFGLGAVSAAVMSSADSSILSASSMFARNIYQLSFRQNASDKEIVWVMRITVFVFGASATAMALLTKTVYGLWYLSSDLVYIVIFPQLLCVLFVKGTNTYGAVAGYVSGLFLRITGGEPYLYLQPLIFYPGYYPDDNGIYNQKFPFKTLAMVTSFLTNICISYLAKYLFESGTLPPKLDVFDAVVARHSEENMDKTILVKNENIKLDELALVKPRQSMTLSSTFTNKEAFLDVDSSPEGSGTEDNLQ
Briefly: human choline transporter blockers, potency – cell-based, 5-point CRC, membrane potential dye, dose response (AID 504840). It is filed as functional.

The nature of series [3]: NIH-3T3 fibroblast cytotoxicity, dose response, cytotoxicity control, cell-based, fluorescence, Alamar Blue, secondary assay (AID 2327).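 Further: NIH-3T3 mouse fibroblasts cultured with fluconazole at 8 µg/mL.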 Type of series: functional.
The nature of series [4]: decrease of insulin promoter-GFP reporter – imaging, high-content screening, mouse beta cells (AID 1628). It is filed as functional. The conditions noted are these: MIN6.
Series [5] can be described thus: MIN6 cell viability loss – mouse insulinoma, cytotoxicity control, dose response (AID 2122).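 Further: confirmatory high-throughput counterscreen run to flag cytotoxic compounds.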 Type of series: functional.
The nature of series [6]: fluconazole-exposed Candida albicans growth modulators – fluorescence, retest, confirmation (AID 2467). It is filed as functional, cell-based.
Series [7] can be described thus: THP-1 cell cytotoxicity, dose response, cytotoxicity control for non-replicating M. tuberculosis project (AID 489025). It is filed as functional.
The nature of series [8]: HepG2 cell cytotoxicity, dose response, cytotoxicity control for non-replicating M. tuberculosis project (AID 489018). It is filed as functional. The conditions noted are these: Mycobacterium tuberculosis.
The nature of another series: cells. Type of series: functional.
The nature of series [9]: blockers of HIV-1 envelope-mediated cell-cell fusion – cherry-pick, dose response (AID 652057). It is filed as functional, cell-based.
The nature of series [10]: viability loss in CEM21 cells – cell-based, CellTiter-Glo luminescence, cherry-picked, cytotoxicity control for viral fusion inhibitor project, dose response (AID 652042).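 Further: potency for signal decrease meaning cytotoxicity.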 It is filed as functional.
Series [11] in a line: blockers of HIV-1 ZM109 envelope-driven cell-cell fusion – HeLa effector, CEM target cells, luciferase, cherry-pick, dose response (AID 652058).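 Further: luciferase signal from HIV-1 Env mediated cell-cell fusion of effector and target cells.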 Type of series: functional, cell-based.
Series [12] can be described thus: off-target signal loss in HeLa-CEM21 co-culture – HeLa F-luc CTL cells, cherry-picked, counter-screen for HIV-1 Env fusion inhibitor project, dose response (AID 652040).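 Further: potency for signal decrease marking cytotoxic or nonspecific inhibition.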 Type of series: functional, cell-based.
Series [13] in a line: HIV-1 AD8 envelope cell-cell fusion blockers – cherry-pick, dose response (AID 652062).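 Further: luciferase signal from cell-cell fusion driven by HIV-1 clade B AD8 Env; potency is for inhibitors of fusion seen as a drop in luminescence.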 Type of series: functional, cell-based.
Series [14] concerns the target Sphingosine 1-phosphate receptor 5 (Homo sapiens, UniProt Q9H228). Briefly: Late stage counterscreen assay for S1P4 antagonists: Fluorescence dose response cell-based screening assay for antagonists of the Sphingosine 1-Phosphate Receptor 5 (S1P5). [Related pubchem assays (depositor defined):AID1510, AID1524, AID1692, AID1853, AID2332, AID489009, AID489017]. It is filed as functional.

In series [15] the target is Sphingosine 1-phosphate receptor 3 (Homo sapiens, UniProt Q99500). Briefly: Late stage counterscreen assay for S1P4 antagonists: Fluorescence dose response cell-based screening assay for antagonists of the Sphingosine 1-Phosphate Receptor 3 (S1P3). [Related pubchem assays (depositor defined):AID1510, AID1524, AID1692, AID1853, AID2332, AID489009, AID489017]. It is filed as functional.

For series [16], the target named is Sphingosine 1-phosphate receptor 1 (Homo sapiens, UniProt P21453). Briefly: Late stage counterscreen assay for S1P4 antagonists: Fluorescence dose response cell-based screening assay for antagonists of the Sphingosine 1-Phosphate Receptor 1 (S1P1). [Related pubchem assays (depositor defined):AID1510, AID1524, AID1692, AID1853, AID2332, AID489009, AID489017]. Type of series: functional.

The target in series [17] is Sphingosine 1-phosphate receptor 2 (Homo sapiens, UniProt O95136). Briefly: Late stage counterscreen assay for S1P4 antagonists: Fluorescence dose response cell-based screening assay for antagonists of the Sphingosine 1-Phosphate Receptor 2 (S1P2). [Related pubchem assays (depositor defined):AID1510, AID1524, AID1692, AID1853, AID2332, AID489009, AID489017]. It is filed as functional.

A further series concerns the target Cytochrome P450 2C19 (Homo sapiens, UniProt P33261). Briefly: Cytochrome panel assay with activity outcomes. Panel member name: p450-cyp2c19 Compounds with AC50 equal or less than 10 uM are considered active. Type of series: functional.
A further series has as its target T2, Cytochrome P450 1A2 (Homo sapiens, UniProt P05177).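 Further: PubChem cytochrome P450 panel assay, CYP1A2 panel member.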
T2 sequence (P05177 whole entry): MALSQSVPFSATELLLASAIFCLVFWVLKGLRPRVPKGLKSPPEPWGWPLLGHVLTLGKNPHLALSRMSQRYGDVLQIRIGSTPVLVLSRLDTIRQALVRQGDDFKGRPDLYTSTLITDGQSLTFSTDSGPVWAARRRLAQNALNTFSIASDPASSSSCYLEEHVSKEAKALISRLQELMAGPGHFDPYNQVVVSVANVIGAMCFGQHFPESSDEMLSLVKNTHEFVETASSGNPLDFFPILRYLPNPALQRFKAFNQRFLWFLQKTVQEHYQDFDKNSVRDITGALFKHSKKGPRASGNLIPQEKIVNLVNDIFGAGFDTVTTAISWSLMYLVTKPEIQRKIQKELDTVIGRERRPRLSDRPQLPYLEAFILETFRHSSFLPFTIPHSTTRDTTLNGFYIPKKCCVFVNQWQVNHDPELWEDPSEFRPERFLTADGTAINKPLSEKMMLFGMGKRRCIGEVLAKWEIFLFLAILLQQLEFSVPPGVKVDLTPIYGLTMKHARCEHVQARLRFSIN

For series [18], the target named is T3, Short transient receptor potential channel 4 (Mus musculus, UniProt Q9QUQ5).
T3 sequence (Q9QUQ5 whole entry): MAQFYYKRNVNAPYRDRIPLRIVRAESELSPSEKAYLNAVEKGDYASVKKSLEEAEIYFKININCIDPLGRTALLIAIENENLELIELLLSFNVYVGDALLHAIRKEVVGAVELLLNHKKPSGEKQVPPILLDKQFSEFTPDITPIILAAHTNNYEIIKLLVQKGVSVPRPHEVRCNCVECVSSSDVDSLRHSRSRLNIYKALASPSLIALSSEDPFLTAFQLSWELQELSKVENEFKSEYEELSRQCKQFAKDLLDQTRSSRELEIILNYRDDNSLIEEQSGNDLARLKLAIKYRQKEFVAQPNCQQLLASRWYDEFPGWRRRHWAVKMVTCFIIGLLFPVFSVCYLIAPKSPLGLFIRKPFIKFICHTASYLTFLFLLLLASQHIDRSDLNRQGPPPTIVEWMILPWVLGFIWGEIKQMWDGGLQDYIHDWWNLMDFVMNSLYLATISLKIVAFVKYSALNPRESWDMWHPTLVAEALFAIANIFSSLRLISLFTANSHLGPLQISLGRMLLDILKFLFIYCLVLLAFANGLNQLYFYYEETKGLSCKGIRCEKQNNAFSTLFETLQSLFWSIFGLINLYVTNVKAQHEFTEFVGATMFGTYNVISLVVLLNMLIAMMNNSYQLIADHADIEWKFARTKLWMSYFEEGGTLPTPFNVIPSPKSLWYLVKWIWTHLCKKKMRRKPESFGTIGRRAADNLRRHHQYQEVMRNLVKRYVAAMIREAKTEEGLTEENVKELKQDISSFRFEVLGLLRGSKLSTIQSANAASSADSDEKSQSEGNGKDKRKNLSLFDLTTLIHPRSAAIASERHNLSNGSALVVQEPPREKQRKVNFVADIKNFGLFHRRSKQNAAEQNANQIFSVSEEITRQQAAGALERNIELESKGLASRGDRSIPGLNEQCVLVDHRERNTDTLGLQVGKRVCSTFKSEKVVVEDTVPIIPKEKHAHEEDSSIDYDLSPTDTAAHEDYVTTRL
Briefly: block of DAMGO-driven TRPC4 calcium entry – cell-based, HEK293 TRPC4/mu-opioid, Fluo-4 calcium, dose response (AID 434942).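 Further: potency of inhibitors blocking the TRPC4 calcium response.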 It is filed as functional.

Series [19] concerns the target Intestinal-type alkaline phosphatase (Mus musculus, UniProt P24822). Briefly: PubChem AID 488875. Type of series: functional.
Series [20] addresses T4, Intestinal-type alkaline phosphatase (Homo sapiens, UniProt P09923). Briefly: human intestinal alkaline phosphatase activators, dose response, biochemical, luminescence, uHTS hits (AID 463120). It is filed as functional.
The target in series [21] is T4, Intestinal-type alkaline phosphatase. Briefly: activation of human intestinal alkaline phosphatase – biochemical, luminescent, uHTS hits, set 2, dose response (AID 488817).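 Further: potency of activators that raise enzyme activity.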 Type of series: functional.
The target in series [22] is T5, Alkaline phosphatase, tissue-nonspecific isozyme (Homo sapiens, UniProt P05186).
T5 sequence (P05186 whole entry): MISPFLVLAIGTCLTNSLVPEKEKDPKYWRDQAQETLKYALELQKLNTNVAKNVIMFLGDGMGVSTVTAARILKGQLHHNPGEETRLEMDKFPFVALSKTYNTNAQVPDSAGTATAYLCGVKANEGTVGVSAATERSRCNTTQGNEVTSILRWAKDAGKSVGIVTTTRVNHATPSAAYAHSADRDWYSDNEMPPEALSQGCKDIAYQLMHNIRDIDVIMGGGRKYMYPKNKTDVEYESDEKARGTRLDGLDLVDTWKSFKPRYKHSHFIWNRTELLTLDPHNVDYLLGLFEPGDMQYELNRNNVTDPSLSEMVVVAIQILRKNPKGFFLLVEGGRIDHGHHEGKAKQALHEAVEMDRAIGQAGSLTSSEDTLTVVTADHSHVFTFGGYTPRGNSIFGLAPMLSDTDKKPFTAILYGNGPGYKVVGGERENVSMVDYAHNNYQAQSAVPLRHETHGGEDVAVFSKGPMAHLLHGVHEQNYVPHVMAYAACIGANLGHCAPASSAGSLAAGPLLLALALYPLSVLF
Briefly: activation of tissue-nonspecific alkaline phosphatase – biochemical, TNAP isozyme, human IAP uHTS hits, selectivity assay for human IAP activator project, dose response (AID 488886).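 Further: potency of compounds raising TNAP activity as a selectivity check on IAP activators.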 Type of series: functional.

In the next series the target is Trypsin (Sus scrofa, UniProt P00761). Briefly: trypsin protease activity blockade – biochemical, quenched peptide fluorescence, cherry-pick, selectivity assay for Rce1 protease inhibitor project, dose response (AID 488789).
For a further series, the target named is CAAX prenyl protease 1 (Saccharomyces cerevisiae S288c, UniProt P47154). Briefly: yeast CAAX protease Ste24 inhibition – biochemical, S. cerevisiae, plate reader, cherry-pick, dose response (AID 488815).

The record followed here is ChEMBL document CHEMBL1201862, “PubChem BioAssay data set” (2004).

Activity calls are given as the source filed them. Some results are limits rather than exact numbers.

T4 sequence (P09923 whole entry): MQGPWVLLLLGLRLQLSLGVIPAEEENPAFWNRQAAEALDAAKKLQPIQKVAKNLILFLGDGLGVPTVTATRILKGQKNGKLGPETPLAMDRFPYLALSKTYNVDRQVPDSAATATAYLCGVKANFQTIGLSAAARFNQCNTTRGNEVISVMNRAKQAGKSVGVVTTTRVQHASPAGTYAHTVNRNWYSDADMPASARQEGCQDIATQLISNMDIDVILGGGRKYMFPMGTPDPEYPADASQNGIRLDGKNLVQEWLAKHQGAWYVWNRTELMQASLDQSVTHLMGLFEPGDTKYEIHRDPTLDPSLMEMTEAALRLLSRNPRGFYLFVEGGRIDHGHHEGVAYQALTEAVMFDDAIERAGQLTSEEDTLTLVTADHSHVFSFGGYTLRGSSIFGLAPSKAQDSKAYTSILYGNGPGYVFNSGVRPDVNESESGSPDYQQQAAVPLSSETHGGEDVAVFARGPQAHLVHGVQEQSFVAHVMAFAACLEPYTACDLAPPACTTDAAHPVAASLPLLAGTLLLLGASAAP
Chain of Cytochrome P450 2C19 (P33261 whole entry): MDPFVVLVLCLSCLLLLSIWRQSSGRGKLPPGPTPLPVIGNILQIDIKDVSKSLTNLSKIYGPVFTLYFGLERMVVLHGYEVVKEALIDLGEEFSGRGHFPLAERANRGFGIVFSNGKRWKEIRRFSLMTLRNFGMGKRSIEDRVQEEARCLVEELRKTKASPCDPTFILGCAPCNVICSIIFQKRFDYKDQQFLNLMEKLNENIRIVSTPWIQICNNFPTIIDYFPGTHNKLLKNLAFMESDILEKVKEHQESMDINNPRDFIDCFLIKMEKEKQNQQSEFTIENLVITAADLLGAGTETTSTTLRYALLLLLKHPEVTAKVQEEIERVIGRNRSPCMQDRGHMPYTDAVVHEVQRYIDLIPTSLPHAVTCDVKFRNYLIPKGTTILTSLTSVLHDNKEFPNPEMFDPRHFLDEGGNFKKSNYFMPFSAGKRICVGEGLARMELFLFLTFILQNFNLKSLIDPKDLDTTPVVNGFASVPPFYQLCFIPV
Chain of Intestinal-type alkaline phosphatase (Mus musculus, UniProt P24822) (P24822 whole entry): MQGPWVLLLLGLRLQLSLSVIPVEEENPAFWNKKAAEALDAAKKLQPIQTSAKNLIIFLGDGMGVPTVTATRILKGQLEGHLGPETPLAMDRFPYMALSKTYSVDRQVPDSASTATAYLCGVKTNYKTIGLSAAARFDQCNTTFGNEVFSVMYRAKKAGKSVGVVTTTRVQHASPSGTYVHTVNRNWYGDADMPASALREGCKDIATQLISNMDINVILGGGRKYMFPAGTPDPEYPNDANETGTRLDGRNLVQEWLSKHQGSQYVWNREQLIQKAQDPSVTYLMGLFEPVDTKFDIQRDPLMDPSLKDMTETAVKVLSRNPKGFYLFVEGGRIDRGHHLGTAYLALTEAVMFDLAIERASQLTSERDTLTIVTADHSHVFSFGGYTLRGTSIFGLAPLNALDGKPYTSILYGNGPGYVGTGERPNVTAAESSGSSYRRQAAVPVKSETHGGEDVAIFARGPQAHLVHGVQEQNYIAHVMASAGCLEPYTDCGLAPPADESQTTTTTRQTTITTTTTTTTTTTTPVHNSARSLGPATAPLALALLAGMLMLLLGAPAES
Chain of Cytochrome P450 3A4 (P08684 whole entry): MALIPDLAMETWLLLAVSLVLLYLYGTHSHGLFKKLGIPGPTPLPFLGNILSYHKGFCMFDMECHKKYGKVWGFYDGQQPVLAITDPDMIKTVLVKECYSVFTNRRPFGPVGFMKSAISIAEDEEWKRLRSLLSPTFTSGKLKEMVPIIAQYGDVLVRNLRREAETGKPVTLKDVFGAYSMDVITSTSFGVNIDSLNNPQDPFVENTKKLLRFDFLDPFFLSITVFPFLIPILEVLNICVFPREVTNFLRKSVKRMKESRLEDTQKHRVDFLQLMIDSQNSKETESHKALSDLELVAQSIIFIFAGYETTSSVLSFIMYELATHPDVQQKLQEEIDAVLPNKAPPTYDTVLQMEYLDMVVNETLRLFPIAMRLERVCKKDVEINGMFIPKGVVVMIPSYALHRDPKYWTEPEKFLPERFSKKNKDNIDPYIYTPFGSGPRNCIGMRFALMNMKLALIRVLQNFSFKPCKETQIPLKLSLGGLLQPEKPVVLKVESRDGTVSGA
Chain of Cytochrome P450 2C9 (P11712 whole entry): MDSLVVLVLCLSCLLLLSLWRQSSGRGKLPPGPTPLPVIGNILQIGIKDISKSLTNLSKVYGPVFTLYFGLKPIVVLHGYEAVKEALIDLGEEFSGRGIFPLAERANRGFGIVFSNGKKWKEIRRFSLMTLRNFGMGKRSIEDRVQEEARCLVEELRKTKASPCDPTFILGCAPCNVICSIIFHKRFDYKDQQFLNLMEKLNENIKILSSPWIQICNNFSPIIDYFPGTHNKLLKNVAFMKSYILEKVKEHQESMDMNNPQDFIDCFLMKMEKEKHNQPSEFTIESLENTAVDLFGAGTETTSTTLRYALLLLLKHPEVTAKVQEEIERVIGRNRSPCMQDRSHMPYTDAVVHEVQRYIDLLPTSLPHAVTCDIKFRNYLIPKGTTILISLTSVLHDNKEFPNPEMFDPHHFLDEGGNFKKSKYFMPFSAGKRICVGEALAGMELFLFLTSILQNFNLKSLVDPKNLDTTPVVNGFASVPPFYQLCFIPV
Chain of Cytochrome P450 2D6 (P10635 whole entry): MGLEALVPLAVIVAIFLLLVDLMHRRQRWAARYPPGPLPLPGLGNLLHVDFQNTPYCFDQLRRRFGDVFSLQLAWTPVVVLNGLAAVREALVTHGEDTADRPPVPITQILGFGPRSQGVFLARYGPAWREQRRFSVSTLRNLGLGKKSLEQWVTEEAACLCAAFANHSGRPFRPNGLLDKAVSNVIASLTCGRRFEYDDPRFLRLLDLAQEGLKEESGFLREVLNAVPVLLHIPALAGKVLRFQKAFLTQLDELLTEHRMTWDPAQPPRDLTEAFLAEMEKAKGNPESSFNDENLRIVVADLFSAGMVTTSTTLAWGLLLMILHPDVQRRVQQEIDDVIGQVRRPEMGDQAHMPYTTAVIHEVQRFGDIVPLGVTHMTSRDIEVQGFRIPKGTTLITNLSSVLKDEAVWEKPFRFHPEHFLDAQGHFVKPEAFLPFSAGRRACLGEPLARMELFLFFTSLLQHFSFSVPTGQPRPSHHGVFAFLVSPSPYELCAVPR
Chain of Sphingosine 1-phosphate receptor 2 (O95136 whole entry): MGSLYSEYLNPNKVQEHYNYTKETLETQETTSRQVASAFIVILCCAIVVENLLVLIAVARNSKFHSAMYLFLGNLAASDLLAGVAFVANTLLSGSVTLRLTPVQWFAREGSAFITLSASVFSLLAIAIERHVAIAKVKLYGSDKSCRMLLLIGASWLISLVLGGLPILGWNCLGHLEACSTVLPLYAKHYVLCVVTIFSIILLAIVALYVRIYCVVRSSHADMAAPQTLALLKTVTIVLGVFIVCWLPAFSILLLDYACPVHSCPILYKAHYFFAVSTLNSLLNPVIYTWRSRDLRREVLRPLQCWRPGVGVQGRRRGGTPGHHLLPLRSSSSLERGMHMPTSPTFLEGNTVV
Chain of Trypsin (P00761 whole entry): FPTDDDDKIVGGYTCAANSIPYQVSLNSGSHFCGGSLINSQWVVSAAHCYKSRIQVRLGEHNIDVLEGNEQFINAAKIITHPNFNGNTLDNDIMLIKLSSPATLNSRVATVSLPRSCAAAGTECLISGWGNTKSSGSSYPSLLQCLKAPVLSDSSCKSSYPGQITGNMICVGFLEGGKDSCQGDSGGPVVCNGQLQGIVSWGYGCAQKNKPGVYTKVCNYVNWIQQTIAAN
Chain of Sphingosine 1-phosphate receptor 3 (Q99500 whole entry): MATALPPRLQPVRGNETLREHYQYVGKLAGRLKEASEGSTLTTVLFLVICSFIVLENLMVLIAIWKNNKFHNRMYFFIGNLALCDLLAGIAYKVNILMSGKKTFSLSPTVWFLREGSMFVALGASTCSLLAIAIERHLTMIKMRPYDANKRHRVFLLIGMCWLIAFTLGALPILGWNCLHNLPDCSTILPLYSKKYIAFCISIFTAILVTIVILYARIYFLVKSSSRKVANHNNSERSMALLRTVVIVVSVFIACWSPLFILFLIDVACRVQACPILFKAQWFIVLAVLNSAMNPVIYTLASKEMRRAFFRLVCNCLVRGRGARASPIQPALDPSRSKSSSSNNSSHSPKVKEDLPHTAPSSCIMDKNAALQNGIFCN
Chain of Sphingosine 1-phosphate receptor 5 (Q9H228 whole entry): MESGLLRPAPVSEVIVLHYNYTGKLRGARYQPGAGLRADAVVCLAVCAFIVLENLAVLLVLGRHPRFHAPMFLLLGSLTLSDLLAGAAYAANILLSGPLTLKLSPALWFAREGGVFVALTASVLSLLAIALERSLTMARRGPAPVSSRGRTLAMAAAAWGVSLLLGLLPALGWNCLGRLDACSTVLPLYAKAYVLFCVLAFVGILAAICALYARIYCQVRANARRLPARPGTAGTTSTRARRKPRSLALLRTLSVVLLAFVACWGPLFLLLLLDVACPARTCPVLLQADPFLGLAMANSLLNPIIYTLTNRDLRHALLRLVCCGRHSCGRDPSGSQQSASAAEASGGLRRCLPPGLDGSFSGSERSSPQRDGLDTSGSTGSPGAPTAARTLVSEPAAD
Chain of CAAX prenyl protease 1 (P47154 whole entry): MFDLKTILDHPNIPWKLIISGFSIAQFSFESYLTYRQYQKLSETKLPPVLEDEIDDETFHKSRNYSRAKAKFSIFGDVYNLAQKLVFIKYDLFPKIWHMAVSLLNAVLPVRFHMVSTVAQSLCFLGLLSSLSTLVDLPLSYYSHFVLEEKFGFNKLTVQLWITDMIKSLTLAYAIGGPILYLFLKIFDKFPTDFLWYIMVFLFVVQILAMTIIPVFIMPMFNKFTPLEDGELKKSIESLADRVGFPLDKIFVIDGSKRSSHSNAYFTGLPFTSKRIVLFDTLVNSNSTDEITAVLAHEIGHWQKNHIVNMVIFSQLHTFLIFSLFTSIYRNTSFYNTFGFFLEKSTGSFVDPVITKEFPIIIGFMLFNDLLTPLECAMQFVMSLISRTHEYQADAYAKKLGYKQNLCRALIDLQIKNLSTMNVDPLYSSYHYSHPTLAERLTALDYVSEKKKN

As to `Fc1ccc(Nc2nnc(C(F)(F)F)s2)cc1Cl`, the IC50 (in general, the point on the concentration scale where inhibition reaches its midpoint) on Exodeoxyribonuclease V was > 39.5 µM (inactive); in series [1], 96.8 µM (inactive); in [2], 11 µM (active).

As to `CC(C)[C@@H]1CC[C@@H](C)C[C@H]1OC(=O)C[n+]1cc(-c2ccc(Cl)cc2)n2c1CCCCC2`, the EC50 – broadly, the concentration needed to bring the measured effect to its halfway point – in series [3] was 23.8 µM (inconclusive); in series [6], 0.225 µM (active). Further, the IC50 was 1.14 µM (active) in [4], 1.16 µM (active) in series [5] and 6.86 µM (active) in “cells”. The results for the 50% cytotoxic concentration (CC50) in [7] and in series [8] were 4.52 µM (active) and > 20 µM (active), respectively. Also, the AC50 (in general, the concentration at which the activity in the assay is half-maximal) is 16.3 µM (active) in series [9]; 8.93 µM (active) in [10]; 8.56 µM (active) in [11]; 37 µM (active) in series [12]; 9.97 µM (active) in [13].

`Cc1cccc(C)c1NC(=O)c1ccc(-c2cccc(Cl)c2)o1`: the IC50 in [14], in series [15], in [16] and in series [17] was > 25 µM (inactive) in each case.

Turning to `FC(F)(F)c1cc(CN2CC[C@@]3(CCCNC3)C2)cc(C(F)(F)F)c1`, the AC50 entry is “inconclusive” at Cytochrome P450 2C19; 3.98 µM (inconclusive) at Cytochrome P450 3A4; “inconclusive” at Cytochrome P450 2D6; “inconclusive” at Cytochrome P450 1A2; “inconclusive” on Cytochrome P450 2C9.

For `CCOc1ccccc1CN1CCC(n2nccc2NC(=O)CCc2ccccc2)CC1`, the concentration giving a half-maximal response (EC50) in [18] was 0.473 µM (active); in series [19], 80.6 µM (active); in series [20], 59.9 µM (active); in series [21], 80.1 µM (active); in [22], 74.4 µM (active).

As for `CCN(CC)CCCNC(=O)CCc1c(C)n(CC)c2cc(-c3ccccc3OC)nn2c1=O`, the AC50 is 13.1 µM (active) on Trypsin and 6.24 µM (active) on CAAX prenyl protease 1.
